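48-hour exposure; five concentrations; linearly interpolated endpoints. The concentration for 50% growth inhibition is given as GI50. At the TGI there is no net growth.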
Assays:
Test in all cases: NCI tumour cell line growth inhibition, 48 h
DMS 114 small cell lung = system: DMS 114 small cell lung
DMS 273 small cell lung = system: DMS 273 small cell lung
KM20L2 colon = system: KM20L2 colon
LXFL 529 NSCLC = system: LXFL 529 NSCLC
RXF-631 renal = system: RXF-631 renal
XF 498 CNS = system: XF 498 CNS
MDA-N = system: MDA-N
P388 leukemia = system: P388 leukemia
P388/ADR leukemia = system: P388/ADR leukemia
SN12K1 renal = system: SN12K1 renal

Structure (SMILES)	TGI (DMS 114 small cell lung)	TGI (DMS 273 small cell lung)	TGI (KM20L2 colon)	TGI (LXFL 529 NSCLC)	TGI (RXF-631 renal)	TGI (XF 498 CNS)	GI50 (MDA-N)	TGI (MDA-N)	TGI (P388 leukemia)	TGI (P388/ADR leukemia)	TGI (SN12K1 renal)
N#C/C(=C\c1c(O)cc(O)cc1O)C(N)=O	> 100 µM	> 100 µM	> 100 µM	> 100 µM	> 100 µM	> 100 µM					
COC(=O)c1c(O)ccc(O)c1C(C(C)=O)C(C)=O	> 100 µM	> 100 µM		> 100 µM		> 100 µM					
CC1OC(n2cc(C(F)(F)F)c(=O)[nH]c2=O)C=CC1=O (stereo not drawn)			48.1 µM	31.6 µM	25.3 µM	30.3 µM					
COc1ccc(CN2C(=O)[C@@H]3Cc4c(OC)c(C)c(OC)c(OC)c4[C@H](/C2=C\c2cc(OC)c(OC)c(C)c2OC)N3C(=O)OC(C)C)cc1	> 100 µM	> 100 µM	> 100 µM	> 100 µM	> 100 µM						
Cc1ccc2c(c1)-c1c3c(nn1C)-c1ccccc1SC3O2 (stereo not drawn)	> 100 µM	> 100 µM	> 100 µM	> 100 µM		88.5 µM					
CC(=O)OCC1OC(n2cccnc2=O)C(OC(C)=O)C1OC(C)=O (stereo not drawn)	> 100 µM	> 100 µM	> 100 µM	> 100 µM	> 100 µM	> 100 µM					
COc1ccc(Oc2nc3cc(N)cc(N)c3nc2-c2ccccc2)cc1							35.2 µM	> 100 µM			
Cc1ccc(N(C=O)c2c([N+](=O)[O-])cc([N+](=O)[O-])c3c2=[N+]([O-])CN=3)cc1								> 100 µM			
O=C1c2ccccc2C(=O)N1CCCOCc1c[nH]c(=O)[nH]c1=O	> 100 µM	> 100 µM	> 100 µM	> 100 µM	> 100 µM	> 100 µM					
C=C1C(=O)O[C@H](c2ccoc2)C[C@@H]1[C@@]1(C)CCCC2(C)C(=O)OCC21 (stereo partly drawn)	> 100 µM	> 100 µM	> 100 µM	> 100 µM		> 100 µM					
CNC(=O)ON(C(C)=O)C(=O)NC	126 µM	241 µM	324 µM			131 µM	> 85.8 µM	73.6 µM	62.4 µM	111 µM	192 µM
CCOC(=O)C1=C(OC(OCC)C([Se]c2ccccc2)C(C)C)CCC1 (stereo not drawn)		20 µM	63.3 µM	29.5 µM		26.4 µM					
CCOC(=O)C1=C(C)NC(=O)NC1c1ccc(OC)cc1OC (stereo not drawn)	> 100 µM	> 100 µM	> 100 µM	> 100 µM		> 100 µM					
CC1(C)C(N2CCOCC2)CS1(=O)=O (stereo not drawn)								> 10 µM			
Cc1cccc(C)c1NC(=O)CCC(=O)NC(N)=NC#N	> 100 µM		> 100 µM	> 100 µM	> 100 µM	> 100 µM					
N#Cc1c2ccccc2c(Cc2ccc3c(c2)OCCOCCOCCOCCOCCO3)c2ccccc12	23.9 µM	17.8 µM	21.7 µM	30.4 µM		23.5 µM					
CC(C)(C)[Si](C)(C)OCC1OC(n2cnc3c(=O)[nH]cnc32)CC1O (stereo not drawn)								> 100 µM			
CC1(C)c2ccccc2N2C(c3ccccc3)=NOC21C (stereo not drawn)	> 100 µM	> 100 µM	> 100 µM	> 100 µM	> 100 µM						
O=C(NC1CC1)c1c(O)[nH]c(=S)[nH]c1=O	> 100 µM		> 100 µM	> 100 µM	> 100 µM						
